Experimental data: article PMC4398638 (Bioorganic & medicinal chemistry, 2015)

Test system: WI-38 human lung fibroblasts (normal) cell line (FR−)
Experiment: MTT cytotoxicity assay, WI-38 cells
Format: cell-based
Settings: normal (WI-38, FR−) cells versus FR-overexpressing cancer cells / free drug

CC(=O)O[C@@]12CO[C@@H]1C[C@H](O)[C@@]1(C)C(=O)[C@H](OC(=O)C3CC3)C3=C(C)[C@@H](OC(=O)[C@H](OC(=O)Cc4ccccc4SSC(C)CCC(=O)NCCCOCCOCCOCCCNC(=O)c4ccc(CC5CCCCCc6c5nnn6CCOCCOCCOCCNC(=O)CC[C@H](NC(=O)CC[C@H](NC(=O)c5ccc(NCc6cnc7nc(N)[nH]c(=O)c7n6)cc5)C(=O)O)C(=O)N[C@@H](CCCNC(=N)N)C(=O)O)cc4)[C@H](C=C(C)C)NC(=O)OC(C)(C)C)C[C@@](O)([C@@H](OC(=O)c4ccccc4)[C@H]21)C3(C)C (stereo partly shown) [Conjugate 1]
decrease in cytotoxicity against normal human cells: > 1,000 fold
